We go through 19 compounds from ChEMBL document CHEMBL1136270 (Bioorg Med Chem Lett, 2003).

SMILES strings stand for the structures.

Broadly, the IC50 is the concentration at which inhibition is half-maximal. A higher IC50 goes with weaker potency in that assay.

One test concerns the target MAP kinase p38 (Mus musculus, UniProt P47811+O08911+Q9WUI1+Q9Z1B7). The test is described as follows: Inhibitory activity against mouse Mitogen-activated protein kinase p38. It is filed as protein assay.
`O=C1NCc2nc(Sc3ccc(F)cc3F)c(Br)cc2N1c1c(Cl)cccc1Cl` showed a 50% inhibitory concentration (IC50) of 16 nM.

For `CN(C)CCN1CCN(c2cc3c(nc2Sc2ccc(F)cc2F)CNC(=O)N3c2c(Cl)cccc2Cl)CC1`, the 50% inhibitory concentration (IC50) came out at 0.6 nM.

As to `O=C1NCc2nc(Sc3ccc(F)cc3F)c(N3CC4CC3CN4CC3CC3)cc2N1c1c(Cl)cccc1Cl` (configuration not stated), the IC50 was determined as 3 nM.

`CC(C)N1CC2CC1CN2c1cc2c(nc1Sc1ccc(F)cc1F)CNC(=O)N2c1c(Cl)cccc1Cl` (configuration not stated) displayed an IC50 of 2 nM.

Regarding `O=C1NCc2nc(Sc3ccc(F)cc3F)c(N3CC4CC3CN4C3CC3)cc2N1c1c(Cl)cccc1Cl` (configuration not stated), the IC50 is 3 nM.

Consider `O=C1NCc2nc(Sc3ccc(F)cc3F)c(N3CCN(CCN4CCCC4)CC3)cc2N1c1c(Cl)cccc1Cl`, for which the IC50 was 1.1 nM.

With `CC(C)(C)OC(=O)N1CC2CC1CN2c1cc2c(nc1Sc1ccc(F)cc1F)CNC(=O)N2c1c(Cl)cccc1Cl` (configuration not stated), the IC50 came to 44 nM.

In turn, `O=C1NCc2nc(Sc3ccc(F)cc3F)c(OC3CCNCC3)cc2N1c1c(Cl)cccc1Cl` returned an IC50 of 11 nM.

As for `O=C1NCc2nc(Sc3ccc(F)cc3F)c(N3CC4CCC3C4)cc2N1c1c(Cl)cccc1Cl` (configuration not stated), the half-maximal inhibitory concentration (IC50) is 5.3 nM.

Compound `O=C1NCc2nc(Sc3ccc(F)cc3F)c(N3CCNCC3)cc2N1c1c(Cl)cccc1Cl` gave an IC50 of 2 nM.

`O=C1NCc2nc(Sc3ccc(F)cc3F)c(N3CCCCC3)cc2N1c1c(Cl)cccc1Cl` came in with a 50% inhibitory concentration (IC50) of 4.2 nM.

With `O=C1NCc2nc(Sc3ccc(F)cc3F)c(N3CC4CC3CN4)cc2N1c1c(Cl)cccc1Cl` (configuration not stated), the half-inhibitory concentration (IC50) came to 0.6 nM.

Regarding `O=C1NCc2nc(Sc3ccc(F)cc3F)c(N3CCOCC3)cc2N1c1c(Cl)cccc1Cl`, the IC50 came out at 2 nM.

Consider `O=C1NCc2nc(Sc3ccc(F)cc3F)c(NC3CCNCC3)cc2N1c1c(Cl)cccc1Cl`, for which the concentration for half-maximal inhibition (IC50) amounted to 4 nM.

Consider `CCN1CC2CC1CN2c1cc2c(nc1Sc1ccc(F)cc1F)CNC(=O)N2c1c(Cl)cccc1Cl` (configuration not stated), for which the IC50 worked out at 9 nM.

Regarding `CC(C)(C)OC(=O)N1CCN(c2cc3c(nc2Sc2ccc(F)cc2F)CNC(=O)N3c2c(Cl)cccc2Cl)CC1`, the 50% inhibitory concentration (IC50) is listed as 25 nM.

`CC(C)N1CCN(c2cc3c(nc2Sc2ccc(F)cc2F)CNC(=O)N3c2c(Cl)cccc2Cl)CC1` had an IC50 of 7 nM.

`O=C1NCc2nc(Sc3ccc(F)cc3F)c(N3CCC(CCN4CCCC4)CC3)cc2N1c1c(Cl)cccc1Cl` yielded an IC50 of 6 nM.

`CC1CN(c2cc3c(nc2Sc2ccc(F)cc2F)CNC(=O)N3c2c(Cl)cccc2Cl)CC(C)O1` (configuration not stated) gave a half-maximal inhibitory concentration (IC50) of 3 nM.

A further test relates to THP-1. Description: Anti human TNF-alpha activity determined through TNF-alpha release was measured in the supernatants by ELISA.; not active at a concentration of <10 uM. It is filed as functional, cell-based. (In an ELISA, binding on a coated surface is turned into a signal by an enzyme label.)
For the compound `O=C1NCc2nc(Sc3ccc(F)cc3F)c(Br)cc2N1c1c(Cl)cccc1Cl`, the IC50 entry is listed as “Not Active”.

The test system of a further test is THP-1. The test is described as follows: Anti human TNF-alpha activity determined through TNF-alpha release was measured in the supernatants by ELISA; not active at a concentration of <10 uM. It is filed as functional, cell-based.
For the compound `CC(C)(C)OC(=O)N1CC2CC1CN2c1cc2c(nc1Sc1ccc(F)cc1F)CNC(=O)N2c1c(Cl)cccc1Cl` (configuration not stated), the concentration for half-maximal inhibition (IC50) entry is “Not Active”.

As for `CC(C)(C)OC(=O)N1CCN(c2cc3c(nc2Sc2ccc(F)cc2F)CNC(=O)N3c2c(Cl)cccc2Cl)CC1`, the IC50 entry is “Not Active”.
